{"source": "patent US20220338477A1", "about": "“MYCOBACTERIUM BACTERICIDE” (SANKEI CO., LTD., priority 2019, published 2022)", "key": {"M. intracellulare": {"test_system": "M. intracellulare", "assay": "Test for studying disinfecting effect of chlorous acid aqueous solution and sodium hypochlorite on M. intracellulare", "type": "cell-based, Mycobacterium intracellulare", "conditions": "for free chlorine concentration (as Cl) at which a disinfecting effect (reducing the bacteria count 4 log or greater) is exhibited: contact time 1 min", "method": "(§1) As a measuring method of free chlorine (as Cl), a buffer and a DPD indicator are added to a sample and a wavelength of 510 nm is measured with an absorption spectrophotometer, and for measurement of free chlorine (as Cl) in the presence of an organic matter, measurement is taken at a wavelength of 655 nm using a TMB reagent to find the concentration from the measurement values. Further, a method of conducting a test for studying the disinfecting effect prepares free chlorine (as Cl) of a test agent by a DPD method, contacts each agent with an organic matter-containing bacterial solution, neutralizes the solution with sodium thiosulfate after a certain period of time has passed, and checks the viable bacteria count of the neutral solution.\nFor the “chlorous acid aqueous solution formulation manufactured with chlorous acid aqueous solution” prepared based on the preparation method described above, the concentration of “chlorous acid aqueous solution” was measured based on the “Quantification method of chlorous acid aqueous solution” described above, and buffer prepared to achieve the free chlorine concentration described in each Example (phosphate buffer comprising dipotassium hydrogen phosphate and potassium dihydrogen phosphate) was used to prepare the chlorous acid aqueous solution of each Example.\nThe disinfecting effects of chlorous acid aqueous solutions and sodium hypochlorite on M. intracellulare were studied in the absence of an organic matter and in the presence of an organic matter, i.e., 0.5% bovine serum albumin (hereinafter, BSA) (FIG. 1). If an effect of reducing the bacteria count is 4 log or greater, the agent is considered as having a disinfecting effect."}, "[1]": {"test_system": "other mycobacteria (JCM135429, JCM135430, JCM135431, JCM135432, JCM6387, JCM6390, JCM13569)", "assay": "Disinfecting effect on other mycobacteria", "type": "cell-based", "method": "as §1\nAdditional studies were conducted to find whether a disinfecting effect is observed on other mycobacteria. In the absence of organic matters, an effect of chlorous acid aqueous solutions was also observed on other mycobacteria at free chlorine of 50 ppm or greater, whereas an effect was not observed from sodium hypochlorite at 200 ppm (FIG. 7). The same results as the results for M. intracellulare were obtained."}, "[2]": {"test_system": "chromosomal DNA of M. intracellulare", "assay": "Pulsed-field gel electrophoresis of chromosomal DNA after disinfection of M. intracellulare", "type": "cell-based, Mycobacterium intracellulare", "conditions": "compared with water", "source_text": "In order to study the disinfection mechanism of chlorous acid aqueous solutions, with the understanding that a chlorous acid aqueous solution is unlikely to disinfect by acting on the bacterial surface in view of the results of SEM, chromosomal DNA was extracted from bacteria after disinfection, and the state of the chromosomal DNA was examined through pulsed-field gel electrophoresis in order to study the effect of a chlorous acid aqueous solution on chromosomal DNA of bacteria."}}}
{"smiles": "OCl", "note": "[sodium hypochlorite]", "values": [{"measurement": "disinfecting effect (FIG. 1)", "setting": "M. intracellulare; absence and presence of organic matter (0.5% BSA)", "value": "not found"}, {"measurement": "free chlorine concentration (as Cl) at which a disinfecting effect (reducing the bacteria count 4 log or greater) is exhibited", "setting": "M. intracellulare; absence of an organic matter", "value": "> 200", "unit": "ppm"}, {"measurement": "free chlorine concentration (as Cl) at which a disinfecting effect (reducing the bacteria count 4 log or greater) is exhibited", "setting": "M. intracellulare; presence of an organic matter (0.5% BSA)", "value": "> 1000", "unit": "ppm"}, {"measurement": "free chlorine at which a disinfecting effect was observed", "setting": "[1]; absence of organic matters (FIG. 7)", "value": "> 200", "unit": "ppm"}, {"measurement": "free chlorine at which a disinfecting effect was observed", "setting": "[1]; presence of 0.5% BSA (FIG. 8)", "value": "> 1000", "unit": "ppm"}, {"measurement": "state of chromosomal DNA band in pulsed-field gel electrophoresis", "setting": "[2]", "value": "a band is formed at the same position as water"}]}
